# According to US12121500B2, “Inhibitors of Bunyaviridae and uses thereof” (priority 2020, dated 2024):
# Read-outs that look alike come from different tables or passages of the source.
# Key:
# Escherichia coli = assay: Inhibition of Escherichia coli growth, broth microdilution; type: cell-based; details: 16-24 hours, Mueller-Hinton broth, — = inactive; for MIC80: Escherichia coli, read-out: E. coli (MIC80)
# [1] = Quantitative cytotoxicity in Vero cells, crystal violet staining of EC50 plates; details: African green monkey
# human ribonuclease H1 = molecular target: T1, human ribonuclease H1 (Homo sapiens, UniProt O60930); assay: biochemical; type: biochemical
# T1 construct: made in house; host or cells: E. coli
# T1 sequence (O60930 1-286): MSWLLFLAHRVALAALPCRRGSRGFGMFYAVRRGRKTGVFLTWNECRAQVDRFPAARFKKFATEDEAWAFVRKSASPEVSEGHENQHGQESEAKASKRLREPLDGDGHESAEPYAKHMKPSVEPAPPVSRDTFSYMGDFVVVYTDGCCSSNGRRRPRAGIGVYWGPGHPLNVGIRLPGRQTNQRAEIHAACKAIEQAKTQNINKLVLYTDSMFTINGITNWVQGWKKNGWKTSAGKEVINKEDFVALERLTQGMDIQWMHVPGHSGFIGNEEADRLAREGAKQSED
# Staphylococcus spp. = assay: Inhibition of Staphylococcus spp. growth, broth microdilution; type: cell-based, S. saprophyticus or S. aureus; details: 16-24 hours, Mueller-Hinton broth, — = no measurable MIC80; for MIC80: Staphylococcus
# [2] = Cytotoxicity in HepDES19 cells, MTS assay; details: human, HepDES19 cells (HepG2-derived hepatoblastoma cell line)
# RVFV [3] = assay: microbe, parasite or virus in culture; type: cell-based, Rift Valley Fever Virus
# C. neoformans = assay: Inhibition of C. neoformans growth, limiting dilution assay; type: cell-based, Cryptococcus neoformans; details: 48 hours at 35° C., YNB-02; for MIC80: Cryptococcus neoformans, read-out: C. neoformans (MIC80)
# RVFV strain MP12 = assay: microbe, parasite or virus in culture; type: cell-based, Rift Valley Fever Virus; details: for EC50: read-out: Estimated EC50
# in vitro [4] = details: human
# in vitro [5] = details: African green monkey
# RVFV [6] = assay: microbe, parasite or virus in culture; type: cell-based, Rift Valley Fever Virus; remark: listed apart in the source
# Vero cells [7] = assay: Quantitative cytotoxicity in Vero cells, crystal violet staining of EC50 plates; details: read-out: CC50 Vero, 1 day of compound exposure, crystal violet, * marks limit values
# HepDES19 = assay: Cytotoxicity in HepDES19 cells, MTS assay; details: read-out: CC50 HepDES19; HepDES19 cells, 3 days, MTS; * marks limit value
# Vero cells [8] = test system: Vero cells
# [9] = Rift Valley fever virus, Vero, 24 h, read-out: RVFV (EC50, μM)
# [10] = Rift Valley fever virus, A549, 24 h
SMILES,CC50 at 1 day [1] [µM],IC50 (human ribonuclease H1) [µM],"Staphylococcus spp. (MIC80, μM) (Staphylococcus spp.)",EC50 (RVFV [3]; [9]) [µM],MIC80 (C. neoformans) [µM],"EC50 (RVFV strain MP12; Rift Valley fever virus, Vero) [µM]",MIC80 (Escherichia coli) [µM],IC50 (human ribonuclease H1; read-out: Human RNaseH1 (IC50)) [µM],MIC80 (Staphylococcus spp.) [µM],CC50 (in vitro [5]) [µM],CC50 (HepDES19) [µM],EC50 (RVFV [3]; read-out: RVFV (EC50)) [µM],also measured
Cc1cc(O)c(=O)c(O)cc1C(=O)c1ccc(-c2ccncc2)cc1 [Compound 260],> 250,277,poorly active or inactive,31.6,50,–,–,–,–,–,–,–,"E. coli (MIC80, μM) (Escherichia coli): poorly active or inactive; Human RNaseH1 (IC50, μM) (human ribonuclease H1): poorly active or inactive; CC50 at 3 days [2]: 45 µM"
Cc1cc(O)c(=O)c(O)cc1C(=O)c1cccs1 [Compound 308],217,–,–,0.54,11,2,25,46,44,111,–,–,"CC50 (in vitro [4]): 119 µM; EC50 (RVFV [6]; [10]): 8.36 µM; EC50 (RVFV [6]; Rift Valley fever virus, A549, 24 h, read-out: EC50 in A549 cells): 8.4 µM"
Cc1cc(O)c(=O)c(O)cc1C(=O)c1ccccc1O [Compound 311],> 250,26,–,11.6,15,3,30,–,67,115,–,–,–
Cc1ccc(/C=C/C(=O)c2ccccc(=O)c2O)cc1 [Compound 340],–,–,–,–,–,–,–,> 500,–,–,18.7,27.3,"EC50 (RVFV strain MP12): 3 µM; CC50 (Vero cells [7]): 70 µM; C. neoformans (MIC80, μM) (C. neoformans): 49 µM"
Cc1cc(O)c(=O)c(O)cc1C(=O)c1cccc(Br)c1 [Compound 359],170,–,–,5.1,24,4,–,–,–,–,19.4,–,–
Cc1cc(O)c(=O)c(O)c(O)c1C(=O)c1ccc(-c2ccccc2)cc1 [Compound 362],77.8,–,–,2.6,24,6,–,212,–,–,5.4,–,"E. coli (MIC80, μM) (Escherichia coli): inactive"
Cc1cc(O)c(=O)c(O)cc1C(=O)NCc1ccccc1 [Compound 388],239,166,–,9,11,19,67,–,67,–,–,–,"activity against RVFV in the primary screen, in words (RVFV strain MP12): active; CC50 at 3 days [2]: 19.8 µM"
Cc1cc(O)c(=O)c(O)cc1C(=O)Nc1ccccc1 [Compound 389],> 250,309,good to moderate activity,8.8,3.5,16,44,–,44,–,–,–,"activity against RVFV in the primary screen, in words (RVFV strain MP12): active; E. coli (MIC80, μM) (Escherichia coli): good to moderate activity; Human RNaseH1 (IC50, μM) (human ribonuclease H1): nearly inactive; CC50 at 3 days [2]: 26.5 µM"
CCc1cccc(N=C(C)c2c(C)cc(=O)n(O)c2O)c1 [Compound 518],–,–,67 µM,–,–,–,–,436,–,–,91.4,20,"EC50 (RVFV strain MP12): 7 µM; CC50 (Vero cells [7]): > 120 µM; CC50 (Vero cells [8]): ≥ 120 µM; CC50 (A549 cells): 16.5 µM; EC50 (RVFV [6]; read-out: EC50): 17.2 µM; C. neoformans (MIC80, μM) (C. neoformans): 24 µM"
C/C(=N\c1ccc(Cl)c(Cl)c1)c1c(C)cc(O)n(O)c1=O [Compound 670],> 120,–,–,14 to 20,69,10,–,356,–,≥ 120,69,14,CC50 (in vitro [4]): ≥ 120 µM; EC50 (RVFV [6]; [10]): 15.3 µM
O=C(Cc1ccccc1)Sc1cccccc1=O [Compound 680],–,–,13 µM,–,–,–,–,652,–,–,95.6,> 120,"EC50 (RVFV strain MP12): 0.3 µM; E. coli (MIC80, μM) (Escherichia coli): 30 µM; CC50 (Vero cells [7]): > 120 µM; CC50 (Vero cells [8]): 0.9 µM; CC50 (A549 cells): ≥ 120 µM; EC50 (RVFV [6]; read-out: EC50): 11.6 µM; C. neoformans (MIC80, μM) (C. neoformans): 0.40 µM"
CC[C@H](C)[C@H](NC(=O)OCC1c2ccccc2-c2ccccc21)C(=O)Sc1cccccc1=O [Compound 686],–,–,30 µM,–,–,–,–,> 500,–,–,42.6,> 120,"EC50 (RVFV strain MP12): 2 µM; CC50 (Vero cells [7]): > 120 µM; CC50 (Vero cells [8]): ≥ 120 µM; CC50 (A549 cells): 67.6 µM; EC50 (RVFV [6]; read-out: EC50): 7.87 µM; C. neoformans (MIC80, μM) (C. neoformans): 0.85 µM"
CCCCSc1ccc(SCCCC)c(O)c(=O)c1O [Compound 694],22.1,> 500,–,3.7,2.3,6,–,–,9,≥ 120,1.8,–,–
CC(C)Sc1ccc(SC(C)C)c(O)c(=O)c1O [Compound 696],56.5,–,–,6,1.5,12,20,–,13,118,14.1,–,–
Cc1cc(O)c(=O)c(O)cc1C(=O)NC(CCC(=O)OC(C)(C)C)C(=O)OC(C)(C)C (stereo not drawn) [Compound 867],> 120,> 500,–,8.7,9,7,–,–,–,≥ 120,5.2,–,CC50 (in vitro [4]): ≥ 120 µM; EC50 (RVFV [6]; [10]): 33 µM
Cc1cc(O)c(=O)c(O)cc1C(=O)N1CCN(C(c2ccc(F)cc2)c2ccc(F)cc2)CC1 [Compound 1017],54.7,–,–,8,6,3,–,–,–,≥ 120,3.9,–,–
